In one experiment the target is T1, κ-opioid receptor (Homo sapiens, UniProt P41145).
T1 construct: purchased; host or cells: CHO cells (membranes)
The experiment is described as follows: Opioid receptor binding assay, [3H]U-69593 competition. The note with it: CHO cell membranes, 0.5 nM [3H]U-69593, 25 °C, 120 min; mean ± SEM of four experiments in duplicate; read-out: Ki KOR. On the procedure:
(§1) The opioid receptor binding assays were performed using the modified method described elsewhere. Briefly, commercial membranes of Chinese Hamster Ovary (CHO) cells transfected with human opioid receptors were used. The binding affinities for µ-, δ- and κ-opioid receptors were determined by radioligand competition analysis using [^3H]DAMGO, [^3H]deltorphin-2, and [^3H]U-69593, respectively. Membranes were incubated at 25 °C for 120 min with appropriate concentrations of a tested peptide in the presence of 0.5 nM radioligand in a total volume of 0.5 mL of 50 mM Tris/HCl (pH 7.4) containing bovine serum albumin (BSA) (1 mg/mL), bacitracin (50 µg/mL), bestatin (30 µM), and captopril (10 µM). Non-specific binding was determined in the presence of 1 µM naloxone. Incubations were terminated by the rapid filtration through the GF/B Whatman (Brentford, UK) glass fibre strips (pre-soaked for 2 h in 0.5% (v/v) […]) using Millipore Sampling Manifold (Billerica, MA, USA). The filters were washed thrice with 4 mL of ice-cold Tris buffer solution. Packard Tri-Carb 2100 TR liquid scintillation counter (Ramsey, MN, USA) was used to measure the bound radioactivity after overnight extraction of the filters in 4 mL of a Perkin Elmer Ultima Gold scintillation fluid (Wellesley, MA, USA). The data were analyzed by a nonlinear least square regression analysis computer program Graph Pad PRISM 6.0 (Graph Pad Software Inc., San Diego, CA, USA). The values of the inhibitory constants (Ki) were calculated according to the equation of Cheng and Prusoff.
(§2) The ability of R-6 and its new analogs to bind to µ-, δ- and κ-opioid receptors was determined by competitive binding assays against [^3H]DAMGO, [^3H][Ile^5,6]deltorphin-2 and [^3H]U-69593, respectively, using membranes of CHO cells transfected with opioid receptors and are summarized in Table 2.

For experiment [1], the target named is T2, µ-opioid receptor (Homo sapiens, UniProt P35372). In words: Opioid receptor binding assay, [3H]DAMGO competition. Also on record: purchased; host or cells: CHO cells (membranes). The note with it: CHO cell membranes, 0.5 nM [3H]DAMGO, 25 °C, 120 min; mean ± SEM of four experiments in duplicate; read-out: Ki MOR. The procedure:
as §1, §2

Experiment [2] has as its system LPS-stimulated RAW 264.7 cells. The experiment is described as follows: Intracellular ROS formation in LPS-stimulated RAW 264.7 cells. Type of experiment: cell-based, mouse. The note with it: LPS-stimulated, 24 h; for decrease of ROS levels: peptides 0.1-10 µM. On the procedure: The cytotoxic and anti-inflammatory effects of peptides on RAW 264.7 cells were estimated using MTT assay. Cells were incubated with peptides (0.1–10 µM) for 24 h to assess their cytoprotective activity. In the anti-inflammatory model, RAW 264.7 cells were exposed to LPS (Millipore Sigma, Darmstadt, Germany) at 1 µg/mL in the absence/presence of peptide at non-toxic concentrations (0.1–10 µM). Then, the MTT reagent was added to wells, and cells were incubated for 1.5 h at 37 °C. After this time, MTT was removed, 100 µL DMSO was added, and the resulting absorbance was read in a microplate reader (Synergy 2 BioTek Microplate Reader, Winooski, VT, USA) at 570 nm.
The detection of ROS generated in injured cells was evaluated using the 5(6)-carboxy-2ʹ,7ʹ-dichlorofluorescein diacetate (carboxy-H2DCFDA) reagent (Invitrogen, Bleiswijk, Netherlands). After incubation, cells were washed with ice-cold Phosphate-Buffer Saline (PBS). Then, the carboxyl-H2DCFDA (100 µL, 20 µM) reagent was added and incubated for 1 h at 37 °C. Finally, the fluorescence intensity was measured at wavelengths of […], and ROS levels were presented in percentage of control (non-treated cells).

Experiment [3] deals with T2, µ-opioid receptor. In words: Calcium mobilisation assay, CHO cells with Gαqi5. Also noted: expressed in transfected cells; gift from Prof; Girolamo Calo, University of Padova. The note with it: for µ-opioid receptors pEC50 (CL95%): agonist potency, mean ± SEM of three experiments in triplicate; for µ-opioid receptors pEC50 (CL95%) / µ-opioid receptors α ± SEM: Inactive = inactive as an agonist up to 1 µM; for µ-opioid receptors α ± SEM: intrinsic activity, Emax ratio to Dermorphin; for EC50: read-out: µ-opioid receptors pEC50 (CL95%) (converted). Type of experiment: cell-based. The procedure:
Chinese Hamster Ovary (CHO) cells stably co-expressing human recombinant µ- or κ-opioid receptors and the C-terminally modified Gαqi5, and CHO cells co-expressing the human recombinant δ-opioid receptors and the GαqG66Di5 chimeric protein (a generous gift from Prof. Girolamo Calo, University of Padova, Italy) were used in calcium mobilization assay, that was performed as reported in detail elsewhere. Cells were cultured in Dulbecco’s Modified Eagle’s Medium (DMEM)/Ham’s F12 (1:1) culture medium supplemented with 10% (v/v) Fetal Bovine Serum (FBS), penicillin (100 IU/mL), streptomycin (100 µg/mL), L-glutamine (2 mM), fungizone (1 µg/mL), geneticin (G418; 200 µg/mL) and hygromycin B (100 µg/mL). Cell cultures were kept at 37 °C in 5% CO2/humidified air. When confluence was reached (3–4 days), cells were seeded at a density of 50,000 cells/well into 96-well black, clear-bottom plates. After 24 h incubation, the cells were loaded with a medium supplemented with probenecid (2.5 mM), calcium-sensitive fluorescent dye Fluo-4 AM (3 µM), pluronic acid (0.01%), and HEPES (20 mM) and kept for 30 min at 37 °C. Then, the loading solution was aspirated, and 100 µL/well of assay buffer (HBSS supplemented with 20 mM HEPES, 2.5 mM probenecid, and 500 µM Brilliant Black) was added.
The tested peptides were diluted in the HBSS/HEPES (20 mM) buffer (containing 0.005% BSA) and placed into 96-well plates. The range of concentrations tested was 10 µM–1 × 10^–6 µM. After placing both plates (cell culture and compound plate) into the FlexStation II (Molecular Device, Union City, CA, USA), the online additions were carried out in a volume of 50 µL/well and the fluorescence changes were measured.
Concentration–response curves were fitted with the four-parameter logistic, nonlinear regression model: Effect=baseline+Emax- baseline/1+10^logEC50- Xn where X is the agonist concentration and n is the Hill coefficient. Ligand efficacies, expressed as the intrinsic activity (α), were calculated as the Emax ratio of the tested compound and the standard agonist.
For orientation: Calcium assays in cells follow changes in intracellular calcium, usually with a dye or a luminescent sensor.

The next experiment deals with δ-opioid receptor (Homo sapiens, UniProt P41143). In words: Opioid receptor binding assay, [3H][Ile5,6]deltorphin-2 competition. Also noted: purchased; host or cells: CHO cells (membranes). The note with it: CHO cell membranes, 0.5 nM [3H][Ile5,6]deltorphin-2, 25 °C, 120 min; mean ± SEM of four experiments in duplicate; read-out: Ki DOR. On the procedure: as §1, §2

The values that follow come from publication PMC10901950, “Neuroprotective and Anti-inflammatory Effects of Rubiscolin-6 Analogs with Proline Surrogates in Position 2” (Neurochemical Research, 2023).

Broadly, the Ki is a measure of affinity in units of concentration, obtained from inhibition or displacement.

Numbered stars: 1 amine (or outer) side, 2 acyl side, 3 side chain; on linkers, the order of the positions; unused ones are H or OH. Square brackets hold non-standard residues; d marks the D form. Ends that are not written are not given here. Peptide text beside a SMILES is read from it. Nip(3R) = O=C([C@@H]1CCCN([*:1])C1)[*:2]; Dmt = Cc1cc(O)cc(C)c1C[C@H](N)C(=O)O; Inp = O=C(O)C1CCNCC1

Consider `CC(C)C[C@H](NC(=O)[C@@H]1CCCN(C(=O)[C@@H](N)Cc2ccc(O)cc2)C1)C(=O)N[C@@H](CC(=O)O)C(=O)N[C@@H](CC(C)C)C(=O)N[C@@H](Cc1ccccc1)C(=O)O` [analog 2, Tyr-(R)-Nip-Leu-Asp-Leu-Phe-OH] (H-Y[Nip(3R)]LDLF-OH), for which the Ki at κ-opioid receptor, at µ-opioid receptor [1] and at δ-opioid receptor was over 1000 nM each time. Moreover, the “decrease of ROS levels” value in experiment [2] (DCFH-DA) was at most 40%. For the same compound, the “µ-opioid receptors pEC50 (CL95%)” value on µ-opioid receptor [3] is reported as “Inactive”. For the same compound, the “µ-opioid receptors α ± SEM” value at µ-opioid receptor [3] is recorded as “Inactive”.
As for `CC(C)C[C@H](NC(=O)C1CCN(C(=O)[C@@H](N)Cc2ccc(O)cc2)CC1)C(=O)N[C@@H](CC(=O)O)C(=O)N[C@@H](CC(C)C)C(=O)N[C@@H](Cc1ccccc1)C(N)=O` [analog 7, Tyr-Inp-Leu-Asp-Leu-Phe-NH2] (H-Y[Inp]LDLF-NH2), the results for the Ki on κ-opioid receptor, on µ-opioid receptor [1] and at δ-opioid receptor were over 1000 nM, over 1000 nM and 773 ± 137 nM, respectively. In addition, the “reduction of ROS levels” value in experiment [2] (peptide 0.1 µM, DCFH-DA) is on record as “about 50%”. Besides, the “µ-opioid receptors pEC50 (CL95%)” value at µ-opioid receptor [3] was “Inactive”. The “µ-opioid receptors α ± SEM” value at µ-opioid receptor [3] is recorded as “Inactive”.
In the case of “YPLDLF-NH2 [analog 6, Tyr-Pro-Leu-Asp-Leu-Phe-NH2]”, the Ki at κ-opioid receptor, at µ-opioid receptor [1] and on δ-opioid receptor was over 1000 nM in each case. In addition, the “µ-opioid receptors pEC50 (CL95%)” value at µ-opioid receptor [3] is “Inactive”. Besides, the “µ-opioid receptors α ± SEM” value on µ-opioid receptor [3] was “Inactive”.
Take `Cc1cc(O)cc(C)c1C[C@H](N)C(=O)N1CCC(C(=O)N[C@@H](CC(C)C)C(=O)N[C@@H](CC(=O)O)C(=O)N[C@@H](CC(C)C)C(=O)N[C@@H](Cc2ccccc2)C(=O)O)CC1` [analog 5, Dmt-Inp-Leu-Asp-Leu-Phe-OH] (H-[Dmt][Inp]LDLF-OH): the Ki on κ-opioid receptor is over 1000 nM; on µ-opioid receptor [1] it was 712 ± 101 nM; on δ-opioid receptor, 13.1 ± 3.08 nM. Besides, in experiment [2] (peptide 0.1 µM), the “effect on ROS levels” value was “protective effect”. Also, the “µ-opioid receptors α ± SEM” value at µ-opioid receptor [3] is listed as 0.11 ± 0.04. Besides, on µ-opioid receptor [3], the EC50 was 7590 nM.
On to YPLDLF [R-6, rubiscolin-6], for which the Ki at κ-opioid receptor is over 1000 nM; on µ-opioid receptor [1], over 1000 nM; at δ-opioid receptor, 11.5 ± 2.25 nM. Moreover, in experiment [2] (DCFH-DA), the “decrease of ROS levels” value is at most 40%. Besides, at µ-opioid receptor [3], the “µ-opioid receptors pEC50 (CL95%)” value is listed as “Inactive”. Besides, at µ-opioid receptor [3], the “µ-opioid receptors α ± SEM” value was “Inactive”.
Take `Cc1cc(O)cc(C)c1C[C@H](N)C(=O)N1CCC[C@H]1C(=O)N[C@@H](CC(C)C)C(=O)N[C@@H](CC(=O)O)C(=O)N[C@@H](CC(C)C)C(=O)N[C@@H](Cc1ccccc1)C(=O)O` [analog 1, Dmt-Pro-Leu-Asp-Leu-Phe-OH] (H-[Dmt]PLDLF-OH): the inhibitory constant (Ki) at κ-opioid receptor is over 1000 nM; at µ-opioid receptor [1] it was 599 ± 84.5 nM; on δ-opioid receptor, 91.7 ± 29.7 nM. Also, the “decrease of ROS levels” value in experiment [2] (DCFH-DA) is listed as at most 40%. The “µ-opioid receptors α ± SEM” value at µ-opioid receptor [3] came out at 0.22 ± 0.05. The EC50 on µ-opioid receptor [3] is 2000 nM.
For `Cc1cc(O)cc(C)c1C[C@H](N)C(=O)N1CCC[C@@H](C(=O)N[C@@H](CC(C)C)C(=O)N[C@@H](CC(=O)O)C(=O)N[C@@H](CC(C)C)C(=O)N[C@@H](Cc2ccccc2)C(=O)O)C1` [analog 4, Dmt-(R)-Nip-Leu-Asp-Leu-Phe-OH] (H-[Dmt][Nip(3R)]LDLF-OH), the Ki at κ-opioid receptor, on µ-opioid receptor [1] and at δ-opioid receptor was over 1000 nM each time. For the same compound, the “decrease of ROS levels” value in experiment [2] (DCFH-DA) is on record as at most 40%. The “µ-opioid receptors pEC50 (CL95%)” value on µ-opioid receptor [3] is “Inactive”. Besides, the “µ-opioid receptors α ± SEM” value at µ-opioid receptor [3] is reported as “Inactive”.
In the case of `CC(C)C[C@H](NC(=O)C1CCN(C(=O)[C@@H](N)Cc2ccc(O)cc2)CC1)C(=O)N[C@@H](CC(=O)O)C(=O)N[C@@H](CC(C)C)C(=O)N[C@@H](Cc1ccccc1)C(=O)O` [analog 3, Tyr-Inp-Leu-Asp-Leu-Phe-OH] (H-Y[Inp]LDLF-OH), the Ki on κ-opioid receptor was over 1000 nM; on µ-opioid receptor [1], over 1000 nM; at δ-opioid receptor, 734 ± 31.3 nM. The “effect on ROS levels” value in experiment [2] (peptide 0.1 µM) is given as “protective effect”. Besides, the “µ-opioid receptors pEC50 (CL95%)” value at µ-opioid receptor [3] is “Inactive”. In addition, the “µ-opioid receptors α ± SEM” value at µ-opioid receptor [3] is recorded as “Inactive”.
